Each structure is given as a SMILES string.

One series is described as follows: logP by HPLC on reversed-phase column (C 18), EEC Directive 79/831 Annex V.A8. The format is physicochemical.
Conditions: not given
The term chromatographic logP denotes lipophilicity estimated from chromatographic retention. The compound `Cc1nnnn1/C(=N/OCc1csc(NC(=O)C(C)(C)C)n1)c1ccc(Cl)nc1` [compound 31] showed a chromatographic logP of 2.9.
The same measure, in the same setting: the same measure for `Cc1cccc(/C(=N\OCc2cccc(N)n2)n2nnnc2C)n1` [compound 87, O-(2-Aminopyridin-6-yl)methyl-(6-methylpyridin-2-yl)-(5-methyltetrazol-1-yl)methanone oxime]: 1.18.
In the case of `CCCCCC(=O)Nc1cccc(CO/N=C(\c2cccc(C)n2)n2nnnc2C)n1` [compound 92, O-[2-(Pentylcarbonylamino)pyridin-6-yl]methyl-(6-methylpyridin-2-yl)-(5-methyltetrazol-1-yl)methanone Oxime], the chromatographic logP was determined as 3.43.
On the same count and under the same terms, the same measure for `Cc1cccnc1/C(=N\OCc1csc(N)n1)c1nnnn1C` [compound 157, O-(2-Amino-1,3-thiazol-4-yl)methyl-(3-methylpyridin-2-yl)-(1-methyltetrazol-5-yl)methanone Oxime]: 1.04.
The same measure, in the same setting: the same measure for `CCCCCC(=O)Nc1nc(CO/N=C(\c2ncccc2C)c2nnnn2C)cs1` [compound 158, O-(2-Pentylcarbonylmino-1,3-thiazol-4-yl)methyl-(3-methylpyridin-2-yl)-(1-methyltetrazol-5-yl)methanone oxime]: 2.94.

The series is the same for the next values; noted with them: HPLC reversed-phase C 18, 40° C., 0.1% aqueous formic acid and acetonitrile gradient.
As a reminder, the LogP is the decadic logarithm of the partition coefficient of the neutral form, usually between octanol and water. High values mean a more lipophilic compound, low ones a more hydrophilic compound. For the compound `Cc1nnnn1C(=NOCc1csc(N)n1)c1ccccn1` [compound 1], the lipophilicity (LogP) is 0.83.
On the same count and under the same terms, to `C=C(C)C(=O)Nc1nc(CON=C(c2ccccn2)n2nnnc2C)cs1` [compound 3] belongs 2.06.
The compound `CCCCCC(=O)Nc1nc(CON=C(c2ccccn2)n2nnnc2C)cs1` [compound 4] displayed a LogP of 2.7.
Same read-out and setting: to `Cc1nnnn1C(=NOCc1nonc1N)c1ccccn1` [compound 6] belongs 1.52; to `Cc1nc(CON=C(c2ccccn2)n2nnnc2C)cs1` [compound 7], 1.76.
On the same count and under the same terms, the same measure for `Cc1nnnn1C(=NOCc1cccc(N)n1)c1ccccn1` [compound 9]: 0.76; for `Cc1nnnn1C(=NOCc1noc(-c2ccco2)n1)c1ccccn1` [compound 11]: 2.38; for `Cc1nnnn1C(=NOCc1csc(NC(=O)C2CC2)n1)c1ccccn1` [compound 14]: 1.99.
Still for that read-out and setting: the same measure for `Cc1nnnn1C(=NOCc1csc(NC(=O)NCc2ccccc2)n1)c1ccccn1` [compound 15]: 2.15.
Compound `CCCNC(=O)Nc1nc(CON=C(c2ccccn2)n2nnnc2C)cs1` [compound 19] registered a LogP of 1.95.
`Cc1nnnn1C(=NOCc1nsc(N)n1)c1ccccn1` [compound 21] had a lipophilicity (LogP) of 1.3.
Still for that read-out and setting: to `COc1ccc(CCNC(=O)Nc2nc(CON=C(c3ccccn3)n3nnnc3C)cs2)cc1` [compound 22] belongs 2.44; to `Cc1nnnn1C(=NOCc1csc(NC(=O)NCCc2cccc(Cl)c2)n1)c1ccccn1` [compound 24], 2.79.
On the same count and under the same terms, to `Cc1nnnn1C(=NOCc1csc(NC(=O)NC2CC2)n1)c1ccccn1` [compound 26] belongs 1.61; to `Cc1nnnn1C(=NOCc1csc(NC(=O)NC(C)(C)C)n1)c1ccccn1` [compound 28], 2.16.
`Cc1nnnn1C(=NOCc1csc(NC(=O)C2CCCCC2)n1)c1ccc(Cl)nc1` [compound 32] registered a LogP of 3.16.
In the case of `Cc1nnnn1C(=NOCc1nonc1N)c1ccc(Cl)nc1` [compound 33], the LogP amounted to 1.88.
The same measure, in the same setting: to `Cc1nnnn1C(=NOCc1csc(N)n1)c1ccc(Cl)nc1` [compound 34] belongs 1.27.
Still for that read-out and setting: to `Cc1nnnn1C(=NOCc1csc(NC(=O)c2ccccc2)n1)c1ccc(Cl)nc1` [compound 36] belongs 2.87; to `Cc1nnnn1C(=NOCc1csc(NC(=O)C2CC2)n1)c1ccc(Cl)nc1` [compound 39], 2.36; to `Cc1nc(CON=C(c2ccc(Cl)nc2)n2nnnc2C)cs1` [compound 40], 2.33.
On the same count and under the same terms, the same measure for `Cc1nnnn1C(=NOCc1nsc(N)n1)c1ccc(Cl)nc1` [compound 44]: 1.78; for `Cc1nnnn1C(=NOCc1csc(NC(=O)NC2CC2)n1)c1ccc(Cl)nc1` [compound 48]: 1.98; for `Cc1nnnn1C(=NOCc1nc(Cc2ccccc2)no1)c1ccc(Cl)nc1` [compound 49]: 3.09.
The compound `Cc1nnnn1C(=NOCc1noc(-c2ccc(C(C)(C)C)cc2)n1)c1ccc(Cl)nc1` [compound 50] yielded a LogP of 4.47.
Regarding `COc1ccc(C(=O)Nc2nc(CON=C(c3ccc(Cl)nc3)n3nnnc3C)cs2)cc1` [compound 57], the lipophilicity (LogP) was determined as 2.97.
Consider `Cc1nnnn1C(=NOCc1csc(NC(=O)C2CCCC2)n1)c1ccc(Cl)nc1` [compound 58], for which the LogP is 2.97.
Still for that read-out and setting: to `Cc1nnnn1C(=NOCc1csc(NC(=O)c2cccs2)n1)c1ccc(Cl)nc1` [compound 59] belongs 2.82; to `Cc1nnnn1C(=NOCc1csc(NC(=O)c2ccco2)n1)c1ccc(Cl)nc1` [compound 69], 2.46; to `COCCC(=O)Nc1nonc1CON=C(c1ccc(Cl)nc1)n1nnnc1C` [compound 72], 2.17.
For `Cc1ccc(OC(=O)Nc2nc(CON=C(c3ccc(Cl)nc3)n3nnnc3C)cs2)cc1` [compound 76], the LogP is recorded as 3.48.
The compound `COCCOCC(=O)Nc1nc(CON=C(c2ccc(Cl)nc2)n2nnnc2C)cs1` [compound 78] displayed a lipophilicity (LogP) of 2.4.
On the same count and under the same terms, to `Cc1cccc(C(=NOCc2csc(N)n2)n2nnnc2C)n1` [compound 80] belongs 1.2; to `CCCC(=O)Nc1nc(CON=C(c2cccc(C)n2)n2nnnc2C)cs1` [compound 82], 2.38.
The same measure, in the same setting: the same measure for `Cc1cccc(C(=NOCc2csc(NC(=O)c3ccccc3)n2)n2nnnc2C)n1` [compound 83]: 2.78; for `Cc1cccc(C(=NOCc2nonc2N)n2nnnc2C)n1` [compound 84]: 1.94; for `Cc1cccc(C(=NOCc2noc(-c3cccc(C(F)(F)F)c3)n2)n2nnnc2C)n1` [compound 86]: 3.67.
The same measure, in the same setting: the same measure for `CCCC(=O)Nc1cccc(CON=C(c2cccc(C)n2)n2nnnc2C)n1` [compound 90]: 2.7; for `Cc1cccc(C(=NOCc2noc(-c3ccc(C(C)(C)C)cc3)n2)n2nnnc2C)n1` [compound 93]: 4.5; for `Cc1cccc(C(=NOCc2noc(-c3ccccc3)n2)n2nnnc2C)n1` [compound 95]: 3.11.
Take `Cc1cccc(C(=NOCc2nsc(N)n2)n2nnnc2C)n1` [compound 96]: the lipophilicity (LogP) stood at 1.59.
For `C=C(C)C(=O)Nc1nc(CON=C(c2cccc(C)n2)n2nnnc2C)cs1` [compound 97], the LogP came to 2.4.
On the same count and under the same terms, to `COC(=O)c1coc(CON=C(c2cccc(C)n2)n2nnnc2C)n1` [compound 98] belongs 2.01; to `Cc1cccc(C(=NOCc2csc(NC(=O)NCCc3ccc(Cl)c(Cl)c3)n2)n2nnnc2C)n1` [compound 102], 3.34.
Still for that read-out and setting: to `CCCNC(=O)Nc1nc(CON=C(c2cccc(C)n2)n2nnnc2C)cs1` [compound 103] belongs 2.17.
Still for that read-out and setting: the same measure for `COc1cccc(CNC(=O)Nc2nc(CON=C(c3cccc(C)n3)n3nnnc3C)cs2)c1` [compound 104]: 2.59.
For the compound `Cc1cccc(C(=NOCc2csc(NC(=O)NCCc3ccc(F)cc3)n2)n2nnnc2C)n1` [compound 105], the LogP stood at 2.78.
Still for that read-out and setting: the same measure for `Cc1cccc(C(=NOCc2csc(NC(=O)NCCc3ccc(Cl)cc3Cl)n2)n2nnnc2C)n1` [compound 106]: 3.43.
Consider `Cc1cccc(C(=NOCc2csc(NC(=O)NCCc3ccccc3)n2)n2nnnc2C)n1` [compound 107], for which the lipophilicity (LogP) stood at 2.72.
As to `COc1ccccc1CNC(=O)Nc1nc(CON=C(c2cccc(C)n2)n2nnnc2C)cs1` [compound 108], the LogP worked out at 2.69.
`CCCCCC(=O)Nc1nc(CON=C(c2cnccc2OC)n2nnnc2C)cs1` [compound 136] came in with a LogP of 3.44.
On the same count and under the same terms, to `COc1ccncc1C(=NOCc1csc(NC(=O)c2ccccc2)n1)n1nnnc1C` [compound 137] belongs 3.13.
Compound `COCCC(=O)Nc1nc(CON=C(c2cnccc2OC)n2nnnc2C)cs1` [compound 138] returned a LogP of 2.25.
On the same count and under the same terms, the same measure for `COc1ccncc1C(=NOCc1csc(NC(=O)CCc2ccccc2)n1)n1nnnc1C` [compound 139]: 3.31; for `CCCCCCCCOC(=O)Nc1nc(CON=C(c2cnccc2OC)n2nnnc2C)cs1` [compound 147]: 5.03.
Still for that read-out and setting: the same measure for `COc1ncccc1C(=NOCc1cccc(N)n1)n1nnnc1C` [compound 152]: 1.03; for `COc1ncccc1C(=NOCc1nc(N)sc1Br)n1nnnc1C` [compound 153]: 2.27.
For the compound `COc1ncccc1C(=NOCc1csc(N)n1)n1nnnc1C` [compound 154], the LogP was 1.24.
`Cc1cccnc1C(=NOCc1csc(NC(=O)Cc2ccccc2)n1)c1nnnn1C` [compound 159] gave a LogP of 2.62.

The record behind these values is patent publication US8129415B2.
